Test results taken from publication PMC12507957 (Drug Delivery and Translational Research, 2025).
Read-outs that look alike come from different tables or passages of the source.

How the values were obtained:
[1] = cited from earlier work
[2] = rats; cited from earlier work
[3] = beagle dogs; cited from earlier work
[4] = In vitro skin permeation of MTG from gel formulations, with infinite dose model fitting; format: in vitro ADME, porcine; conditions: for Permeation (cumulative amount of MTG permeated): 48 h
Procedure: (§1) The in vitro permeation study was performed in triplicate using Franz diffusion cell apparatus with a diffusion area of ~ 0.8 cm^2 and a receptor volume of ~ 3 mL. The porcine skin was thawed at room temperature and cut into an appropriate size before mounting on the Franz diffusion cells. The receptor compartment was filled with PBS containing 0.02%w/v of sodium azide and a selected antioxidant. The Franz diffusion cells were placed into a water bath to maintain the skin temperature at 32 ± 0.5 °C. […] After 48-h permeation studies, the mass balance studies were performed. The samples were extracted for MTG content overnight before HPLC analysis.
To estimate the permeation parameters (P1 and P2), the in vitro permeation data were fitted to the infinite dose model (Eq. 1) using non-linear least squares. This infinite dose model was obtained by solving the diffusion equation using Laplace transform, which was subsequently numerically inverted using Weeks method and fitted to in Python 3.13.3 (Python Software Foundation, Wilmington, DE, US).1 Q¯s=J·A/s=P1ACd/ss/P2sinhs/P2
Here, Q¯s is the cumulative amount of drug permeated, J is the permeation flux, A is the permeation area, Cd is the initial concentration, h is the membrane thickness and s is the Laplace variable. The apparent partition and apparent diffusion coefficients, P1 and P2, are related to the h and the diffusion (D) and partition (K) coefficients, as defined in Eq. 2 and Eq. 3 [32]. The goodness of fit was measured based on the coefficient of determination (R^2) and root mean square error (RMSE).2 P1=Kh 3 P2=D/h^2
The permeability coefficient (Kp), steady-state flux (Jss) and lag time (tlag) can then be calculated using Eqs. 4, 5, and 6 [33] with the estimated values of P1 and P2 from the curve fitting.4 Kp=P1P2 5 Jss=KpCd 6 tlag=h^2/6D
Other permeation parameters were determined experimentally, where A was 0.7–0.8 cm^2, h was 0.0586 cm, Cd was 50 mg/mL and the volume of drug loaded was 40 µL.
BHT at the optimised concentration was also added accordingly. The gels were evaluated for their drug content by mixing the gel in methanol for overnight extraction of MTG before HPLC analysis (Sect. HPLC analysis). In vitro drug release studies were carried out with a similar experimental setup as described in Sect. In vitro permeation and mass balance studies but porcine skin was replaced with a 0.45 µm nylon membrane filter and 40 μL of gel was loaded on the membrane at the donor compartment. Subsequent in vitro permeation and mass balance studies were performed as described in Sect. In vitro permeation and mass balance studies by loading 40 μL of the gel on the skin.

[5] = Mass balance studies after 48-h skin permeation of MTG in solvents; format: in vitro ADME, porcine; conditions: for recovery at 48 h, 5 %w/v: pig
Procedure: as §1, with “performed.” for “performed. The samples were extracted for MTG content overnight before HPLC analysis.”
Subsequently, the surface of the skin was washed twice with 500 μL of methanol before adding to the same Eppendorf tube containing the cotton buds. The skin was removed from the dissembled Franz diffusion cell and cut into pieces before placing in another Eppendorf tube containing 1 mL of methanol. All samples were vortexed and analysed using HPLC (Sect. HPLC analysis).
Samples were analysed using Shimadzu liquid chromatographic system (Kyoto, Japan) with SPD-20A UV–vis detector set at 254 nm. A reverse phase ZORBAX Eclipse Plus C18 column (Agilent Technologies, 150 × 4.6 mm ID × 3.5 μm) coupled with a C18 guard column (Phenomenex SecurityGuard™, 4 × 3.0 mm ID × 5 μm) was employed as the stationary phase. A gradient elution method with acetonitrile and 0.1%v/v of formic acid as the mobile phase (30:70 to 70:30 (v/v) over 1 min and held until 4 min; then returned to 30:70 (v/v) from 4 to 6 min and held up until 10 min) at a flow rate of 1.2 mL/min was used. The injection volume was set at 100 μL and the total run time was 10 min with a retention time of ~ 4 min.

[6] = 32 °C; cited from earlier work
[7] = 5%w/v MTG in DMSO, receptor PBS with 0.01%w/v ascorbic acid (DMSO-AA), 48 h
[8] = 5%w/v MTG in Labrasol, receptor PBS with 0.01%w/v ascorbic acid (Labrasol-AA), 48 h
[9] = 5%w/v MTG in Labrasol, receptor PBS without ascorbic acid, 48 h
[10] = 5%w/v MTG in Lauroglycol, receptor PBS with 0.01%w/v ascorbic acid (Lauroglycol-AA), 48 h
[11] = 5%w/v MTG in Lauroglycol, receptor PBS without ascorbic acid, 48 h
[12] = 5%w/v MTG in Maisine, receptor PBS with 0.01%w/v ascorbic acid (Maisine-AA), 48 h
[13] = 5%w/v MTG in Maisine, receptor PBS without ascorbic acid, 48 h
[14] = 5%w/v MTG in PG, receptor PBS with 0.01%w/v ascorbic acid (PG-AA), 48 h
[15] = 5%w/v MTG in Transcutol, receptor PBS with 0.01%w/v ascorbic acid (Transcutol-AA), 48 h
[16] = 5%w/v MTG in Transcutol, receptor PBS without ascorbic acid, 48 h

CC[C@@H]1CN2CCc3c([nH]c4cccc(OC)c34)[C@@H]2C[C@@H]1/C(=C\OC)C(=O)OC [MTG, mitragynine]
MTG loss ([1]; basic environments (pH 8 and 10), 40 °C over 8 h): ≤ 20% | MTG loss ([1]; pH 4 over 24 h): ~ 11.2% | Oral bioavailability [2]: 3% | Oral bioavailability [3]: 69.6% | Permeation (cumulative amount of MTG permeated) ([4]; 1% MTG gel with DMSO and BHT): 4.76 ± 0.79 μg/cm^2 | Jss (steady-state flux) ([4]; 1% MTG gel with PG and BHT): 0.95 μg/cm^2/h | Permeation (cumulative amount of MTG permeated) ([4]; 1% MTG gel with PG and BHT): 4.92 ± 0.44 μg/cm^2 | Permeation (cumulative amount of MTG permeated) ([4]; 1% MTG gel with Transcutol and BHT): 3.95 ± 0.81 μg/cm^2 | tlag (lag time) ([4]; across all gel formulations): 9 to 14 h | Papp at 1 % ([4]; pig, 1% MTG gel with DMSO and BHT, read-out: Kp (permeability coefficient) (converted)): 0.00447 ×10⁻⁶ cm/s | Papp at 1 % ([4]; pig, 1% MTG gel with PG and BHT, read-out: Kp (permeability coefficient) (converted)): 0.00525 ×10⁻⁶ cm/s | Papp at 48 h, 1 % ([4]; pig, 1% MTG gel with Transcutol and BHT, read-out: Kp (permeability coefficient) (converted)): 0.00376 ×10⁻⁶ cm/s | Permeation (%) [5, 7]: 0.77 ± 0.12% | Skin extraction [5, 7]: 0.91 ± 0.19% | Washing (on skin surface) [5, 7]: 48.69 ± 0.86% | Permeation (%) [5, 8]: 0.08 ± 0.05% | Skin extraction [5, 8]: 3.23 ± 1.80% | Washing (on skin surface) [5, 8]: 70.50 ± 5.24% | Permeation (%) [5, 9]: 0.07 ± 0.07% | Skin extraction [5, 9]: 3.67 ± 0.45% | Washing (on skin surface) [5, 9]: 65.82 ± 5.20% | Permeation (%) [5, 10]: 0.18 ± 0.12% | Skin extraction [5, 10]: 1.96 ± 1.22% | Washing (on skin surface) [5, 10]: 57.28 ± 15.05% | Permeation (%) [5, 11]: 0.04 ± 0.01% | Skin extraction [5, 11]: 0.52 ± 0.38% | Washing (on skin surface) [5, 11]: 66.42 ± 2.26% | Permeation (%) [5, 12]: 0.42 ± 0.13% | Skin extraction [5, 12]: 1.34 ± 0.55% | Washing (on skin surface) [5, 12]: 60.12 ± 1.46% | Permeation (%) [5, 13]: 0.11 ± 0.10% | Skin extraction [5, 13]: 0.45 ± 0.18% | Washing (on skin surface) [5, 13]: 61.67 ± 5.42% | Permeation (%) [5, 14]: 0.30 ± 0.11% | Skin extraction [5, 14]: 1.04 ± 0.20% | Washing (on skin surface) [5, 14]: 45.95 ± 5.07% | Permeation (%) [5, 15]: 0.51 ± 0.22% | Skin extraction [5, 15]: 2.29 ± 0.57% | Washing (on skin surface) [5, 15]: 50.98 ± 9.49% | Permeation (%) [5, 16]: 0.19 ± 0.07% | Skin extraction [5, 16]: 2.08 ± 1.11% | Washing (on skin surface) [5, 16]: 71.94 ± 8.01% | recovery at 48 h, 5 %w/v ([5]; 5%w/v MTG in DMSO, receptor PBS with 0.01%w/v ascorbic acid (DMSO-AA), 48 h, read-out: Total percentage (mass balance recovery)): 50.7 ± 1.17% | recovery at 48 h, 5 %w/v ([5]; 5%w/v MTG in Labrasol, receptor PBS with 0.01%w/v ascorbic acid (Labrasol-AA), 48 h, read-out: Total percentage (mass balance recovery)): 75.7 ± 7.09% | recovery at 48 h, 5 %w/v ([5]; 5%w/v MTG in Labrasol, receptor PBS without ascorbic acid, 48 h, read-out: Total percentage (mass balance recovery)): 70.1 ± 5.72% | recovery at 48 h, 5 %w/v ([5]; 5%w/v MTG in Lauroglycol, receptor PBS without ascorbic acid, 48 h, read-out: Total percentage (mass balance recovery)): 67.4 ± 2.65% | recovery at 48 h, 5 %w/v ([5]; 5%w/v MTG in PG, receptor PBS with 0.01%w/v ascorbic acid (PG-AA), 48 h, read-out: Total percentage (mass balance recovery)): 47.6 ± 5.37% | recovery at 48 h, 5 %w/v ([5]; 5%w/v MTG in Transcutol, receptor PBS without ascorbic acid, 48 h, read-out: Total percentage (mass balance recovery)): 75.4 ± 9.19% | recovery at 48 h, 5 %w/v ([5]; Mitragynine recovery in mass balance studies, 5%w/v in single solvent systems): < 80% | Saturated solubility of MTG in PBS [6]: 77.10 ± 5.17 µg/mL
